Molecules are shown by their SMILES.

One assay has as its target T1, recombinant human mPGES-1 (Homo sapiens, UniProt O14684).
T1 construct: made in house; host or cells: Rosetta E. coli (microsomal/membrane fraction)
T1 sequence (O14684 1-152): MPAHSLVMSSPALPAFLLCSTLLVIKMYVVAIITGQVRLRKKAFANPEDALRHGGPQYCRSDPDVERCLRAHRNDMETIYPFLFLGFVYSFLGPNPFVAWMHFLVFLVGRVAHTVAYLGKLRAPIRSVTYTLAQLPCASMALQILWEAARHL
The assay is described as follows: mPGES-1 inhibition test (microsomes, PGH2 substrate, HTRF detection of PGE2). The assay is classed as biochemical. As to conditions: inhibition of mPGES-1 at 1 μM (marked in cell). The procedure, abridged: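 E. coli microsomal enzyme, 0.1 M KPi pH 7.4 + 2.5 mM GSH; cpd (DMSO) 25 min RT; PGH2 1 min; acidic FeCl2 stop. Dilute 750-fold, HTRF (d2/Eu-cryptate anti-PGE2, overnight 4 °C), 665/620 ratio vs PGE2 standard curve.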
For `O=C(Nc1ccc(F)c(Br)c1)c1ccc2[nH]c(Nc3c(Cl)cccc3Cl)nc2c1` [Example 70, 2-(2,6-Dichloro-phenylamino)-1H-benzimidazole-5-carboxylic acid (3-bromo-4-fluoro-phenyl)-amide], the inhibition (in general, the relative decrease from the control value, in per cent) at 1 µM was 100%.
As for `COc1cc2c(cc1C(=O)Nc1ccc(Br)cc1)nc(Nc1cccc(Cl)c1C(F)(F)F)n2C` [Example 654], the inhibition at 1 µM turned out to be 99%.
`Cc1ccc(Cl)c(Nc2nc3cc(C(=O)NC4CCCCC4)c(F)cc3n2C)c1F` [Example 623, 2-(6-Chloro-2-fluoro-3-methyl-phenylamino)-6-fluoro-N-cyclohexyl-1-methyl-1H-benzimidazole-5-carboxamide]: the inhibition at 1 µM worked out at 93%.

Still in this assay, the particulars now being: inhibition of mPGES-1 at 10 μM.
For the compound `Cc1ccc(NC(=O)c2ccc3[nH]c(Nc4c(Cl)cccc4Cl)nc3c2)nc1` [Example 321, 2-(2,6-Dichloro-phenylamino)-1H-benzimidazole-5-carboxylic acid (5-methyl-pyridin-2-yl)-amide], the inhibition at 10 µM was 93%.
On the same count and under the same terms, then `O=C(Nc1cc(C(F)(F)F)ccc1Cl)c1ccc2[nH]c(Nc3c(Cl)cccc3Cl)nc2c1` [Example 292, 2-(2,6-Dichloro-phenylamino)-1H-benzimidazole-5-carboxylic acid (2-chloro-5-trifluoromethyl-phenyl)-amide], with 100%.
Still for that read-out and setting: next, `O=C(NC1CCC2(CC1)CC2)c1ccc2[nH]c(Nc3c(F)cccc3Cl)nc2c1` [Example 488, 2-(2-Chloro-6-fluorophenylamino)-N-(spiro[2.5]octan-6-yl)-1H-benzimidazole-5-carboxamide]: 98%.
For the compound `Cc1ccccc1NC(=O)c1ccc2[nH]c(Nc3c(Cl)cccc3Cl)nc2c1` [Example 3, 2-(2,6-Dichloro-phenylamino)-1H-benzimidazole-5-carboxylic acid o-tolylamide], the inhibition at 10 µM stood at 95%.
On to `Cc1ccnc(CNC(=O)c2cc3nc(Nc4c(Cl)cccc4Cl)n(C)c3cc2F)c1` [Example 534, 2-(2,6-Dichlorophenylamino)-6-fluoro-1-methyl-N-((4-methylpyridin-2-yl)methyl)-1H-benzimidazole-5-carboxamide], for which the inhibition at 10 µM is 80%.
Still for that read-out and setting: next, `COc1cc2nc(Nc3c(Cl)cccc3Cl)[nH]c2cc1C(=O)NC1CCCCC1` [Example 199, N-(Cyclohexyl)-2-(2,6-dichlorophenylamino)-6-methoxy-1H-benzimidazole-5-carboxamide]: 100%.
The same measure, in the same setting: next, `O=C(NCc1cc(C(F)(F)F)ccn1)c1ccc2[nH]c(Nc3c(Cl)cccc3Cl)nc2c1` [Example 221, 2-(2,6-Dichloro-phenylamino)-1H-benzimidazole-5-carboxylic acid (4-trifluoromethyl-pyridin-2-ylmethyl)-amide]: 87%.
With `COc1cc2[nH]c(Nc3c(Cl)cccc3Cl)nc2cc1C(=O)NCc1ncccc1C1CC1` [Example 407, N-((3-Cyclopropylpyridin-2-yl)-methyl)-2-(2,6-dichlorophenylamino)-6-methoxy-1H-benzimidazole-5-carboxamide], the inhibition at 10 µM turned out to be 100%.
As for `Cn1c(Nc2c(Cl)cc(F)cc2Cl)nc2cc(C(=O)Nc3ccc(Br)cc3)ccc21` [Example 578, 2-(2,6-Dichloro-4-fluoro-phenylamino)-N-(4-bromo-phenyl)-1-methyl-1H-benzimidazole-5-carboxamide], the inhibition at 10 µM is 100%.
For the compound `O=C(Nc1ccc(Cl)cn1)c1ccc2[nH]c(Nc3c(Cl)cccc3Cl)nc2c1` [Example 74, 2-(2,6-Dichloro-phenylamino)-1H-benzimidazole-5-carboxylic acid (5-chloro-pyridin-2-yl)-amide], the inhibition at 10 µM was 97%.
For `Cn1c(Nc2c(Cl)cccc2Cl)nc2cc(C(=O)NC3CCCC(C)(C)C3)c(F)cc21` (stereo not drawn) [Example 355, 2-(2,6-Dichlorophenylamino)-N-(3,3-dimethylcyclohexyl)-6-fluoro-1-methyl-1H-benzimidazole-5-carboxamide], the inhibition at 10 µM turned out to be 100%.
On to `Cc1cc(Br)cnc1NC(=O)c1ccc2[nH]c(Nc3c(Cl)cccc3Cl)nc2c1` [Example 183, 2-(2,6-Dichloro-phenylamino)-1H-benzimidazole-5-carboxylic acid (5-bromo-3-methyl-pyridin-2-yl)-amide], for which the inhibition at 10 µM came out at 100%.
For `CC(C)Oc1cc2[nH]c(Nc3c(Cl)ccc(Cl)c3F)nc2cc1C(=O)NC1CCC(C)(C)CC1` [Example 618, 2-(3,6-Dichloro-2-fluoro-phenylamino)-6-isopropoxy-N-(4,4-dimethyl-cyclohex-1-yl)-1H-benzimidazole-5-carboxamide], the inhibition at 10 µM is 91%.
`O=C(Nc1ccc(Br)cc1)c1ccc2[nH]c(Nc3c(F)cccc3Cl)nc2c1` [compound 334]: the inhibition at 10 µM was 100%.
In the case of `Cn1c(Nc2c(Cl)cccc2Cl)nc2cc(C(=O)NCC3CCCC3)ccc21` [Example 243, 2-(2,6-Dichloro-phenylamino)-1-methyl-1H-benzimidazole-5-carboxylic acid cyclopentylmethyl-amide], the inhibition at 10 µM amounted to 93%.
On to `Cn1c(Nc2cc(C(F)(F)F)ccc2Cl)nc2cc(C(=O)Nc3ccc(Br)cc3)ccc21` [Example 423, N-(4-Bromophenyl)-2-(2-chloro-5-trifluoromethyl-phenylamino)-1-methyl-1H-benzimidazole-5-carboxamide], for which the inhibition at 10 µM stood at 100%.
Consider `CCOc1cc2[nH]c(Nc3c(Cl)ccc(Cl)c3F)nc2cc1C(=O)NC1CCC(C)(C)CC1` [Example 600, 2-(3,6-Dichloro-2-fluoro-phenylamino)-N-(4,4-dimethyl-cyclohexyl)-6-ethoxy-1H-benzimidazole-5-carboxamide], for which the inhibition at 10 µM was 94%.
On the same count and under the same terms, then `O=C(Nc1cc(Br)ccn1)c1ccc2[nH]c(Nc3c(Cl)cccc3Cl)nc2c1` [Example 184, 2-(2,6-Dichloro-phenylamino)-1H-benzimidazole-5-carboxylic acid (4-bromo-pyridin-2-yl)-amide], with 98%; and `COc1cc2[nH]c(Nc3c(Cl)cccc3Cl)nc2cc1C(=O)Nc1ccc(C(F)(F)F)cn1` [Example 633, 2-(2,6-Dichlorophenylamino)-N-(5-trifluoromethyl-pyridin-2-yl)-6-methoxy-1H-benzimidazole-5-carboxamide], with 99%.
Take `CC(C)Oc1cc2[nH]c(Nc3c(Cl)ccc(Cl)c3F)nc2cc1C(=O)NC1CCC(C(F)(F)F)CC1` (stereo not drawn) [Example 620, 2-(3,6-Dichloro-2-fluoro-phenylamino)-6-isopropoxy-N-(4-trans-trifluoromethyl-cyclohex-1-yl)-1H-benzimidazole-5-carboxamide]: the inhibition at 10 µM was 100%.
`Cn1c(Nc2c(Cl)cccc2Cl)nc2cc(C(=O)NC3(C)CCCCC3)ccc21` [Example 253, 2-(2,6-Dichloro-phenylamino)-1-methyl-1H-benzimidazole-5-carboxylic acid (1-methyl-cyclohexyl)-amide]: the inhibition at 10 µM is 100%.
Turning to `O=C(Nc1cc(Cl)ccn1)c1ccc2c(c1)nc(Nc1c(Cl)cccc1Cl)n2C1CNC1` [Example 207, 2-(2,6-Dichloro-phenylamino)-1-azetidin-3-yl-1H-benzimidazole-5-carboxylic acid (4-chloro-pyridin-2-yl)-amide(trifluoro-acetate)], the inhibition at 10 µM is 97%.
On the same count and under the same terms, then `COCCn1c(Nc2c(Cl)cccc2Cl)nc2cc(C(=O)Nc3cc(Cl)ccn3)ccc21` [Example 272, 2-(2,6-Dichloro-phenylamino)-1-(2-methoxy-ethyl)-1H-benzimidazole-5-carboxylic acid (4-chloro-pyridin-2-yl)-amide], with 90%; and `N#CC1(NC(=O)c2ccc3[nH]c(Nc4c(Cl)cccc4Cl)nc3c2)CCCCC1` [Example 231, 2-(2,6-Dichloro-phenylamino)-1H-benzimidazole-5-carboxylic acid (1-cyano-cyclohexyl)-amide], with 86%.
For the compound `Cc1cccc(NC(=O)c2ccc3[nH]c(Nc4c(Cl)cccc4Cl)nc3c2)n1` [compound 336], the inhibition at 10 µM amounted to 85%.
On to `Cn1c(Nc2ccc(C(F)(F)F)cc2Cl)nc2cc(C(=O)Nc3ccc(Br)cc3)ccc21` [Example 556, N-(4-Bromophenyl)-2-(2-chloro-4-trifluoromethyl-phenylamino)-1-methyl-1H-benzimidazole-5-carboxamide], for which the inhibition at 10 µM was found to be 74%.
As for `O=C(Nc1ccc(Br)cc1)c1ccc2[nH]c(Nc3c(Cl)cccc3OC(F)(F)F)nc2c1` [Example 557, N-(4-Bromophenyl)-2-(2-chloro-6-(trifluoromethoxy)phenylamino)-1H-benzimidazole-5-carboxamide], the inhibition at 10 µM came out at 69%.
On to `CC(C)Oc1cc2[nH]c(Nc3c(Cl)ccc(Cl)c3F)nc2cc1C(=O)Nc1cccc(Cl)c1` [Example 614, 2-(3,6-Dichloro-2-fluoro-phenylamino)-N-(3-chloro-phenyl)-6-isopropoxy-1H-benzimidazole-5-carboxamide], for which the inhibition at 10 µM came out at 100%.
Regarding `O=C(Nc1cccc(F)c1)c1ccc2[nH]c(Nc3c(Cl)cccc3Cl)nc2c1` [Example 285, 2-(2,6-Dichloro-phenylamino)-1H-benzimidazole-5-carboxylic acid (3-fluoro-phenyl)-amide], the inhibition at 10 µM came out at 100%.
The same measure, in the same setting: next, `O=C(Nc1cc(Cl)ccn1)c1ccc2[nH]c(Nc3c(Cl)cccc3Cl)nc2c1` [Example 75, 2-(2,6-Dichloro-phenylamino)-1H-benzimidazole-5-carboxylic acid (4-chloro-pyridin-2-yl)-amide]: 95%.

These data come from patent publication US8916599B2, “1H-benz imidazole-5-carboxamides as anti-inflammatory agents” (Orexo AB, priority 2008, dated 2014).
